Values of other authors, collected in patent publication US20230085607A1, “IVERMECTIN COMPOSITIONS FOR TREATMENT OF COVID-19” (priority 2021, published 2023).
Where two headings read alike, the source gives them in different places.

Key:
[1] = tested on: LPS-stimulated primary peritoneal macrophages
[2] = tested on: LPS-challenged macrophages; conditions: 0 to 50 μM, 6 h pre-incubation, LPS 24 h
[3] = tested on: mice with LPS-induced ARDS
[4] = tested on: mice challenged with endotoxin (LPS O111:B4) or live Escherichia coli; conditions: for concentration of IL-1 α: controls 1187.0±278.64
[5] = tested on: lipopolysaccharide-activated macrophages
[6] = tested on: rats subjected to myocardial ischemia and reperfusion; conditions: 10 mg/kg intravenously then 10 mg/kg/h infusion
[7] = tested on: mice with experimental colitis
[8] = tested on: rats with polymicrobial sepsis (CL2P); conditions: 10 mg/kg intraperitoneally at 1 and 6 h after CL2P and every 12 h
[9] = tested on: mice with polymicrobial sepsis (CL2P); conditions: 10 mg/kg intraperitoneally, monitored 72 h after CL2P
[10] = tested on: mice with lethal endotoxemia or lethal sepsis
[11] = tested on: mice with LPS-induced ARDS; remark: listed apart in the source
[12] = 50 mg/kg, LPS 5 mg/kg 3 days later
[13] = 50 and 100 mg/kg/day, compared with MD group

C[S+]([O-])CCCCN=C=S (centres unmarked) [sulforaphane, 1-isothiocyanato-4-(methylsulfinyl)-butane]
HO-1 expression ([1]; LPS-stimulated Nrf2 (+/+) primary peritoneal macrophages): significantly augmented | LPS-stimulated mRNA expression, protein expression and production of TNF-alpha, IL-1beta, COX-2 and iNOS ([1]; Nrf2 (+/+) primary peritoneal macrophages, pretreatment): potently inhibited | anti-inflammatory effect ([1]; Nrf2 (−/−) primary peritoneal macrophages): attenuated | direct reaction with cytokines or NO [2]: neither directly reacted | expression of NO and cytokines [2]: able to prevent | inducible nitric oxide synthase (iNOS) activity ([3]; 50 mg/kg): significantly inhibited | nuclear factor-κB protein expression ([3]; 50 mg/kg): significantly decreased | prostaglandin E2 (PGE2) production ([3]; 50 mg/kg): significantly inhibited | serum levels of interleukin-6 (IL-6) ([3]; 50 mg/kg, ELISA): significantly decreased | serum levels of tumor necrosis factor-α (TNF-α) ([3]; 50 mg/kg, ELISA): significantly decreased | lactate dehydrogenase (LDH) activity [3, 12]: significantly decreased | wet-to-dry ratio of the lungs [3, 12]: significantly decreased | cyclooxygenase-2 (COX-2) protein expression ([3]; 50 mg/kg, western blot): significantly inhibited | matrix metalloproteinase-9 (MMP-9) protein expression ([3]; 50 mg/kg, western blot): significantly inhibited | Nrf2/antioxidant response element (ARE) pathway ([3]; pre-treatment): activated

CC1=CC(=O)C(C(C)C)=CC1=O [thymoquinone]
lipopolysaccharide-induced inflammatory reactions (nitric oxide): suppressed effectively | concentration of nitric oxide (nitric oxide; lipopolysaccharide-induced): reduced significantly | concentration of IL-1 α ([4]; 0.75 mg/kg dose): 310.8 ± 70.93 pg/mL | IL-10 levels ([4]; 0.75 mg/kg, controls 5505.2±333.96): 2885.0 ± 553.98 pg/mL | concentration of IL-1 α ([4]; 1 mg/kg group): 428.3 ± 71.32 pg/mL | levels of IL-2 ([4]; P=0.0851): relatively lower | levels of TNF-α ([4]; P=0.1817): relatively lower | mortality reduction ([4]; mice, sepsis): 80-90% | renal and hepatic biomarker profiles ([4]; mice, sepsis): improved

epigallocatechin-3-gallate [EGCG]
disappearance of inhibitor kappaB from cytosolic fraction [5]: blocked | NO production ([5]; cells cotreated with EGCG and LPS): Inhibition | activation of nuclear factor-kappaB ([5]; electrophoretic mobility shift assay): blocked | TNF-α-induced nuclear factor-κB (NF-κB) activity (macrophage foam cells): inhibition | TNF-α-induced downregulation of ABCA1 and decrease in cholesterol efflux to apoA1 (macrophage foam cells; pretreatment): attenuated | myeloperoxidase activity [6]: reduced | myocardial damage [6]: reduced | plasma IL-6 levels [6]: decreased | plasma creatine phosphokinase levels [6]: decreased | colonic tissue erosion [7, 13]: attenuation | disease activity index (DAI) [7, 13]: decreased | spleen index (SI) [7, 13]: decreased | HIF-1α and STATS protein expression in the colon ([7]; mouse, in vivo): decreasing | plasma levels of IL-10 and TGF-β1 ([7]; mouse, in vivo): increasing | release of IL-6 and IL-17 ([7]; plasma): reduce | hypotension (mean arterial blood pressure) [8]: significantly improved | survival [9]: significantly improved | rescue from lethal sepsis ([10]; first dose 24 hours after cecal ligation and puncture): rescued | protection against lethal endotoxemia ([10]; intraperitoneal administration): protected | systemic accumulation of HMGB1, IL-6 and KC ([10]; mouse, in vivo): attenuation | changes in blood gases ([11]; 10 mg/kg ip): decreased | expression of IκB-α ([11]; 10 mg/kg ip): increased | expression of TLR-4, MyD88, TRIF and p-p65 in the lung tissue ([11]; 10 mg/kg ip): alleviated | expression of TNF-α, IL-1β and IL-6 in the lung, serum and bronchoalveolar lavage fluid ([11]; 10 mg/kg ip): significantly decreased | expression of p65 ([11]; 10 mg/kg ip): no influence | histological lesions ([11]; 10 mg/kg ip): reduced | myeloperoxidase (MPO) activity ([11]; 10 mg/kg ip): reduced | wet-to-dry weight ratios ([11]; 10 mg/kg ip): reduced | LPS-induced ARDS ([11]; 10 mg/kg ip 1 h before LPS 10 mg/kg ip): attenuated
